From ChEMBL document CHEMBL1201862, “PubChem BioAssay data set” (2004) come the findings set out here.

Test systems include SK-OV-3; NCI-H522; CAKI-1; T47D; SK-MEL-28; ACHN; A549; MDA-N; U-251; MCF7; IGROV-1; PC-3; NCI-H23; SR; SF-539; NCI-H226; MDA-MB-435; DU-145; HL-60.
Assay in all cases: inhibition of tumour cell growth, NCI panel, 48 h

Each structure is given as a SMILES string.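 Exposure lasted 48 hours, with cells grown in 96-well plates and compounds tested at five concentrations. GI50 = concentration required for 50% inhibition of growth.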 Activity calls are given as the source filed them. No stated cut-off is given here; in the data, active = GI50 up to about 1.1 µM and inactive = higher. Where a SMILES comes first, the peptide text is derived from it. The star is where a group is joined. Boc = CC(C)(C)OC(=O)*; OBn = c1ccc(CO*)cc1

As for `CC12CCC(=O)C=C1CCC1C2C(O)CC2(C)C(c3csc(N)n3)CCC12.O=S(=O)(O)c1ccc(Br)cc1` (stereo unspecified), the GI50 with SK-OV-3, in the test with NCI-H522, with CAKI-1, in the test with T47D, in the test on SK-MEL-28 and with ACHN was > 100 µM (inactive) in each case. In addition, the GI50 in the test on A549, with MDA-N, in the test on U-251, in the test on MCF7, with IGROV-1 and with PC-3 was > 100 µM (inactive) throughout. Besides, the GI50 with NCI-H23, in the test with SR, in the test on SF-539, with NCI-H226, in the test on MDA-MB-435 and with DU-145 was > 100 µM (inactive) throughout.

`CCc1nnc(S)n1/N=C\c1ccc(-c2ccccc2[N+](=O)[O-])o1`: the GI50 is 36.1 µM (inactive) with SK-OV-3; 31.6 µM (inactive) in the test with NCI-H522; 51.4 µM (inactive) in the test with CAKI-1; 43.9 µM (inactive) in the test on T47D; 52.5 µM (inactive) with ACHN; 42.9 µM (inactive) with A549. In addition, the GI50 was 17.6 µM (inactive) in the test with MDA-N; 35.6 µM (inactive) in the test on HL-60; 38.5 µM (inactive) in the test on U-251; 19.9 µM (inactive) in the test with MCF7; 31.7 µM (inactive) with IGROV-1; 41.5 µM (inactive) in the test with PC-3. Also, the GI50 in the test with NCI-H23 is 33.3 µM (inactive); in the test on SR, 16.9 µM (inactive); in the test with SF-539 it was 29.8 µM (inactive); in the test with NCI-H226, 12.1 µM (inactive); in the test on MDA-MB-435 it was 15.4 µM (inactive); in the test on DU-145, 53.5 µM (inactive).

Turning to `CC(=O)Oc1ccc2c3c1O[C@H]1[C@H](O)CC[C@@]4(O)[C@@H](C2)N(C)CC[C@]314`, the GI50 with SK-OV-3, in the test with NCI-H522, with CAKI-1, with T47D, with SK-MEL-28 and with ACHN was > 100 µM (inactive) in each case. For the same compound, the GI50 in the test with A549, in the test with MDA-N, in the test on HL-60, in the test with U-251, in the test with MCF7 and in the test on IGROV-1 was > 100 µM (inactive) throughout. Moreover, the GI50 with PC-3, in the test on NCI-H23, with SR, with SF-539, in the test on NCI-H226 and with MDA-MB-435 was > 100 µM (inactive) each time. Moreover, the GI50 in the test with DU-145 is > 100 µM (inactive).

As for `Cc1c(C)c(S(=O)(=O)N(CCCCCON)OCCCN)c(C)c2c1OC(C)(C)CC2`, the GI50 in the test on SK-OV-3 was 14.5 µM (inactive); with NCI-H522, 17.7 µM (inactive); in the test with CAKI-1, 6.41 µM (inactive); in the test on T47D, 5 µM (inactive); in the test with SK-MEL-28 it was 16.5 µM (inactive); in the test with ACHN it was 16.4 µM (inactive). The GI50 with A549 is 13.4 µM (inactive); in the test on MDA-N, 14.3 µM (inactive); in the test with HL-60, 5.74 µM (inactive); with U-251, 12.8 µM (inactive); with MCF7, 8.18 µM (inactive); with IGROV-1 it was 10 µM (inactive). Besides, the GI50 is 13.2 µM (inactive) in the test with PC-3; 15.6 µM (inactive) in the test on NCI-H23; 2.71 µM (inactive) in the test with SR; 15.2 µM (inactive) with SF-539; 17.9 µM (inactive) in the test on NCI-H226; 11.8 µM (inactive) with MDA-MB-435. Besides, the GI50 in the test with DU-145 was 0.883 µM (active).

With `O=C(C(Cl)=C(N1CCOCC1)N1CCOCC1)C(Cl)Cl`, the GI50 in the test with SK-OV-3, with NCI-H522, with CAKI-1, with T47D, in the test on SK-MEL-28 and in the test on ACHN was > 100 µM (inactive) in each case. Further, the GI50 in the test on A549 was > 100 µM (inactive); in the test with MDA-N, > 100 µM (inactive); with HL-60 it was > 100 µM (inactive); in the test with MCF7 it was 94.2 µM (inactive); in the test on IGROV-1, > 100 µM (inactive); with PC-3, > 100 µM (inactive). Besides, the GI50 in the test on NCI-H23 is > 100 µM (inactive); in the test with SR it was 34.5 µM (inactive); in the test with SF-539 it was > 100 µM (inactive); in the test with NCI-H226 it was > 100 µM (inactive); with MDA-MB-435, > 100 µM (inactive); in the test with DU-145 it was > 100 µM (inactive).

As to `NN=C(CC(O)(C(F)(F)Cl)C(F)(F)Cl)CC(O)(C(F)(F)Cl)C(F)(F)Cl`, the GI50 in the test on SK-OV-3, in the test with NCI-H522, in the test on CAKI-1, in the test with T47D, in the test with SK-MEL-28 and in the test on ACHN was > 10 µM (inactive) throughout. Also, the GI50 with A549, with MDA-N, in the test with HL-60, in the test with U-251, in the test on MCF7 and in the test on IGROV-1 was > 10 µM (inactive) each time. The GI50 with PC-3, in the test on NCI-H23, in the test on SR, in the test with SF-539, with NCI-H226 and in the test on MDA-MB-435 was > 10 µM (inactive) each time. The GI50 with DU-145 was > 10 µM (inactive).

Regarding `COc1ccc(CNc2nc3ccccc3nc2C(=O)O)cc1`, the GI50 was 72.9 µM (inactive) with NCI-H522; > 100 µM (inactive) with CAKI-1; 65.3 µM (inactive) in the test on T47D; > 100 µM (inactive) in the test with SK-MEL-28; > 100 µM (inactive) in the test with A549; > 100 µM (inactive) in the test on MDA-N. In addition, the GI50 was 95.7 µM (inactive) in the test on HL-60; 58.6 µM (inactive) in the test on U-251; > 100 µM (inactive) in the test on MCF7; > 100 µM (inactive) in the test with IGROV-1; > 100 µM (inactive) in the test with PC-3; > 100 µM (inactive) in the test on NCI-H23. The GI50 was 41.1 µM (inactive) with SR; > 100 µM (inactive) in the test with SF-539; > 100 µM (inactive) with NCI-H226; > 100 µM (inactive) in the test on MDA-MB-435; 66.4 µM (inactive) in the test with DU-145.

As for `O=C(O)C1C2CC3C(OC(=O)C31)C2Br` (stereo unspecified), the GI50 in the test on SK-OV-3, in the test with NCI-H522, in the test on CAKI-1, with T47D, in the test on SK-MEL-28 and in the test on ACHN was > 100 µM (inactive) in each case. The GI50 in the test on A549, with MDA-N, in the test on U-251, in the test on MCF7, in the test on IGROV-1 and in the test with PC-3 was > 100 µM (inactive) throughout. For the same compound, the GI50 is > 100 µM (inactive) in the test with NCI-H23; 0.432 µM (active) in the test with SR; > 100 µM (inactive) in the test with SF-539; > 100 µM (inactive) in the test on NCI-H226; > 100 µM (inactive) in the test on MDA-MB-435; > 100 µM (inactive) in the test on DU-145.

As to `O=C1Nc2ccccc2/C1=c1\[nH]c(=O)/c(=C\c2ccc(OCc3ccccc3)cn2)[nH]c1=O`, the GI50 is 32.3 µM (inactive) with SK-OV-3; 94.4 µM (inactive) in the test on NCI-H522; 0.303 µM (active) in the test with CAKI-1; > 100 µM (inactive) with T47D; > 100 µM (inactive) in the test on SK-MEL-28; 33.7 µM (inactive) in the test with ACHN. Besides, the GI50 was > 100 µM (inactive) with A549; 83.2 µM (inactive) in the test with MDA-N; 49.4 µM (inactive) in the test with HL-60; 17.9 µM (inactive) with U-251; > 100 µM (inactive) in the test with MCF7; 47.3 µM (inactive) with IGROV-1. Further, the GI50 in the test on PC-3 was > 100 µM (inactive); in the test with NCI-H23 it was 30.7 µM (inactive); in the test with SR, 20.1 µM (inactive); in the test on SF-539, 18.2 µM (inactive); in the test with NCI-H226 it was > 100 µM (inactive); in the test with MDA-MB-435 it was 44.1 µM (inactive). For the same compound, the GI50 with DU-145 is 86.5 µM (inactive).

On to `NCC(=O)Nc1ccc(S(=O)(=O)O)c2cc(S(=O)(=O)O)cc(S(=O)(=O)O)c12`, for which the GI50 in the test with SK-OV-3, in the test on NCI-H522, in the test on CAKI-1, in the test on T47D, in the test with SK-MEL-28 and in the test on ACHN was > 100 µM (inactive) in each case. The GI50 with A549, with MDA-N, in the test on HL-60, with U-251, in the test with MCF7 and in the test with IGROV-1 was > 100 µM (inactive) throughout. For the same compound, the GI50 with PC-3, with NCI-H23, with SR, in the test with SF-539, with NCI-H226 and with MDA-MB-435 was > 100 µM (inactive) each time. Further, in the test with DU-145, the GI50 was > 100 µM (inactive).

Take `CC(NC(=O)C(Cc1ccccc1)NC(=O)C(Cc1ccccc1)NC(=O)OC(C)(C)C)C(=O)OCc1ccccc1` (stereo not drawn) (Boc-Phe-Phe-Ala-OBn; configuration not given here): the GI50 in the test with SK-OV-3 was > 100 µM (inactive); in the test on NCI-H522, 68.1 µM (inactive); in the test with CAKI-1, > 10 µM (inactive); in the test with T47D, > 100 µM (inactive); with A549, > 100 µM (inactive); in the test with MDA-N, > 100 µM (inactive). In addition, the GI50 with HL-60 is 31.8 µM (inactive); with U-251 it was 63.7 µM (inactive); with MCF7, 53.5 µM (inactive); with IGROV-1 it was > 100 µM (inactive); in the test on PC-3, 68.7 µM (inactive); in the test with NCI-H23, > 100 µM (inactive). In addition, the GI50 with SR is 28.6 µM (inactive); in the test with SF-539 it was 37.9 µM (inactive); with NCI-H226 it was 6.05 µM (inactive); in the test on MDA-MB-435, > 100 µM (inactive); with DU-145, > 100 µM (inactive).
